Measured values taken from PubChem BioAssay (NCI).
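Values below derive from 48-hour exposures of cells grown in 96-well plates, with endpoints linearly interpolated between the two concentrations bracketing the appropriate inhibition level. Abbreviation: GI50, concentration required for 50% inhibition of growth. At the TGI there is no net growth.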

How the values were obtained:
Test in all cases: DTP human tumour cell line panel, 48 h
DMS 273 small cell lung = tested on: DMS 273 small cell lung
HOP-62 NSCLC = tested on: HOP-62 NSCLC
DLD-1 colon = tested on: DLD-1 colon
SNB-78 CNS = tested on: SNB-78 CNS
M19-MEL melanoma = tested on: M19-MEL melanoma
DMS 114 small cell lung = tested on: DMS 114 small cell lung
KM20L2 colon = tested on: KM20L2 colon
M14 melanoma = tested on: M14 melanoma
SR leukemia = tested on: SR leukemia
MDA-MB-435 = tested on: MDA-MB-435
BT-549 breast = tested on: BT-549 breast
ACHN renal = tested on: ACHN renal
TK-10 renal = tested on: TK-10 renal

| Compound | TGI (DMS 273 small cell lung) | TGI (HOP-62 NSCLC) | TGI (DLD-1 colon) | TGI (SNB-78 CNS) | TGI (M19-MEL melanoma) | TGI (DMS 114 small cell lung) | TGI (KM20L2 colon) | GI50 (M14 melanoma) | TGI (M14 melanoma) | GI50 (SR leukemia) | TGI (SR leukemia) | GI50 (MDA-MB-435) | TGI (MDA-MB-435) | GI50 (BT-549 breast) | TGI (BT-549 breast) | GI50 (ACHN renal) | TGI (ACHN renal) | GI50 (TK-10 renal) | TGI (TK-10 renal) | GI50 (HOP-62 NSCLC) |
| --- | --- | --- | --- | --- | --- | --- | --- | --- | --- | --- | --- | --- | --- | --- | --- | --- | --- | --- | --- | --- |
| S=P1(N2CCCCC2)Oc2ccc3ccccc3c2-c2c(ccc3ccccc23)O1 | > 100 µM | > 100 µM | > 100 µM | > 100 µM | > 100 µM | > 100 µM | > 100 µM | – | – | – | – | – | – | – | – | – | – | – | – | – |
| N=C(N)c1ccc(-c2ccc(-c3ccccc3)s2)cc1 | – | – | – | – | – | – | – | 1.68 µM | 3.51 µM | 0.668 µM | 4.13 µM | 1.66 µM | 3.03 µM | 3.22 µM | 19.9 µM | 1.67 µM | 3.03 µM | – | – | – |
| COc1cc(/C=C/c2cc(/C=C/c3ccc(O)c(OC)c3)nc(N)n2)ccc1O | – | – | – | – | – | – | – | – | – | 0.72 µM | 3.58 µM | – | – | – | – | 2.54 µM | 7.88 µM | 3.39 µM | 9.54 µM | – |
| C=C1C(=O)C[C@@]23CCC[C@@]12CC(OCOC)C3 (stereo partly specified) | 6.65 µM | 25.9 µM | 4.81 µM | 22.5 µM | 12.5 µM | 5.13 µM | 9.02 µM | – | – | – | – | – | – | – | – | – | – | – | – | – |
| Nc1nc(Cl)cc(OCC2(CO)CC(OCc3ccccc3)C2)n1 (stereo unspecified) | – | – | – | – | – | – | – | 95 µM | – | 40.6 µM | – | 69.4 µM | – | 46 µM | – | 41.5 µM | – | – | – | 95.7 µM |
| O=[N+]([O-])c1ccccc1NC1c2ccccc2Oc2ccccc21 | – | > 100 µM | – | – | – | – | – | 3.53 µM | > 100 µM | 3.32 µM | > 100 µM | 2.5 µM | 6.64 µM | – | – | 5.93 µM | > 100 µM | 29.1 µM | > 100 µM | 8.07 µM |
| COC(=O)c1cccc(N[C@@H]2c3cc4c(cc3C(c3cc(OC)c(O)c(OC)c3)[C@H]3C(=O)OCC32)OCO4)c1 (stereo partly specified) | 3.35 µM | 0.937 µM | 15 µM | 98.7 µM | > 100 µM | 4.3 µM | > 32.7 µM | – | – | – | – | – | – | – | – | – | – | – | – | – |
| Cc1cc(C)c2c(c1)CC1(Cc3c(C)ccc(C)c3C1=O)C2=O (stereo unspecified) | – | – | – | – | – | – | – | – | > 100 µM | – | > 100 µM | – | > 100 µM | – | > 100 µM | – | > 100 µM | – | > 100 µM | – |
| Cc1ccc([N+](=O)[O-])cc1S(=O)(=O)Nc1ccc(C2=NNC(c3ccccc3O)C2)cc1 (stereo unspecified) | – | 57.7 µM | – | – | – | – | – | – | 51.6 µM | – | 87.7 µM | – | 50.6 µM | – | 63.5 µM | – | 77 µM | – | > 100 µM | – |
| CCCCCCCC/C=C\CCCCCCCC(=O)O | 210 µM | > 500 µM | 221 µM | 130 µM | 183 µM | 194 µM | > 500 µM | – | – | – | – | – | – | – | – | – | – | – | – | – |
| CCN(CC)CCCNc1ncc(C)c2[nH]c3ccncc3c12 | 25.8 µM | 79.5 µM | > 79.9 µM | > 100 µM | 28 µM | 24.1 µM | 31 µM | – | – | – | – | – | – | – | – | – | – | – | – | – |
| N=c1c2c(=S)n(-c3ccccc3)c(=S)n(-c3ccccc3)c2nc(SCCCN2CCN(c3cccc(Cl)c3)CC2)n1-c1ccccc1 | – | > 100 µM | – | – | – | – | – | – | – | – | > 100 µM | – | > 100 µM | – | > 100 µM | – | > 100 µM | – | > 100 µM | – |
| O=C(O)CNc1ccc(C(=O)O)cc1 | – | > 100 µM | – | – | – | – | – | – | > 100 µM | – | – | – | > 100 µM | – | > 100 µM | – | > 100 µM | – | > 100 µM | – |
| O=C(O)CS | > 100 µM | – | > 100 µM | > 100 µM | > 100 µM | > 100 µM | > 100 µM | – | – | – | > 100 µM | – | – | – | – | – | – | – | > 100 µM | – |
| CCNc1nnc(-c2nsc3ccccc23)s1 | > 100 µM | > 100 µM | – | > 100 µM | > 100 µM | – | > 100 µM | – | > 100 µM | – | > 100 µM | – | – | – | – | – | > 100 µM | – | > 100 µM | – |
